According to US20260048099A1, “SYNERGISTIC INTERACTIONS FOR IMPROVED CANCER TREATMENT” (THE UNITED STATES OF AMERICA, AS REPRESENTED BY THE …, priority 2022, published 2026):

B1: IL-12p70: active IL-12 heterodimer of IL-12A (p35) and IL-12B (p40), referred to as p70 (protein, UniProt P29459 23-219; P29460 23-328, looked up)
Interleukin-12 subunit alpha: RNLPVATPDPGMFPCLHHSQNLLRAVSNMLQKARQTLEFYPCTSEEIDHEDITKDKTSTVEACLPLELTKNESCLNSRETSFITNGSCLASRKTSFMMALCLSSIYEDLKMYQVEFKTMNAKLLMDPKRQIFLDQNMLAVIDELMQALNFNSETVPQKSSLEEPDFYKTKIKLCILLHAFRIRAVTIDRVMSYLNAS
Interleukin-12 subunit beta: IWELKKDVYVVELDWYPDAPGEMVVLTCDTPEEDGITWTLDQSSEVLGSGKTLTIQVKEFGDAGQYTCHKGGEVLSHSLLLLHKKEDGIWSTDILKDQKEPKNKTFLRCEAKNYSGRFTCWWLTTISTDLTFSVKSSRGSSDPQGVTCGAATLSAERVRGDNKEYEYSVECQEDSACPAAEESLPIEVMVDAVHKLKYENYTSSFFIRDIIKPDPPKNLQLKPLKNSRQVEVSWEYPDTWSTPHSYFSLTFCVQVQGKSKREKKDRVFTDKTSATVICRKNASISVRAQDRYYSSSWSEWASVPCS

Key:
xenograft models = conditions: cited from earlier work
[1] = tested on: tumor-infiltrating CD8^+T, NK cells and DC populations in EO771 tumors; assay: Flow cytometry and IHC of immune infiltrates in EO771 tumors and draining lymph nodes; type: in vivo, C57BL/6 mice; conditions: flow cytometry
Procedure: EO771 tumors were analyzed by flow cytometry and immunohistochemistry (IHC) to explore the changes in the tumor immune phenotype upon hetIL-15 treatment. The shorter treatment schedule consisting of 3 hetIL-15 injections was used for these analyses and the tumors were assessed 48 h after the last injection (FIG. 1A). […] Overall, hetIL-15 administration altered the tumor microenvironment by promoting the intratumoral infiltration of activated cytotoxic T and NK cells, as we previously reported (Bergamaschi et al., 2020; Ng et al., 2017).
Guided by our transcriptomic data and our recent report (Bergamaschi et al., 2020), we established a flow cytometry staining protocol (FIG. 3B) that allows distinction of different myeloid cell populations (Bottcher et al., 2018; Guilliams et al., 2016). CD103^+cDC1s were defined as Lin(NK1.1,CD19,B220,CD3)^negCD64^−MHCII^+CD11c^+CD103^+CD11b^−; CD11b^+cDC2s were defined as Lin(NK1.1,CD19,B220,CD3)^negCD64^−MHCII^+CD11c^+CD103^−CD11b^+ and macrophages were defined as Lin(NK1.1, CD19,B220,CD3)^negCD64^+F4/80^+. […] Importantly, tumor infiltration by both […] and CD103^intCD11b^+DCs inversely correlated with the EO771 tumor size in hetIL-15 treated animals 48 hrs after the 3rd hetIL-15 injection (FIG. 3F). In contrast, no correlation between intratumoral CD11b^+cDC2s and tumor size was observed (FIG. 3F).
Tissue samples, including tumors, were fixed in 10% neutral buffered formalin (NBF, Sigma) then routinely processed and paraffin embedded. Tumor and lung sections were dewaxed and rehydrated and then were stained with hematoxylin and eosin (H&E). For immunohistochemistry, sections were antigen-retrieved with heat-induced or enzymatic method. Peroxidase activity was blocked using 1.5% hydrogen peroxide. Sections were blocked with different blocking protocols, depending on the antibody. […]
At necropsy tumors and dLNs were processed for flow cytometric analysis. […] The samples were acquired on a Fortessa (BD Biosciences) flow cytometer, and the data were analyzed using the FlowJo software (Tree Star).

NK-92 cells = assay: IFN-γ production by stimulated NK-92 cells; type: cell-based; conditions: stimulation of NK-92 cells

Molecule	Lowest dose with activity in animal models (xenograft models; doses as low as) [mg/kg]	Efficacy and tolerability (xenograft models; xenograft models)	Intratumoral CD11b+cDC2 (cells per gram of tissue) [1]	Intratumoral CD103+cDC1 (cells per gram of tissue) [1]	Intratumoral CD103intCD11b+DC (cells per gram of tissue) [1]	IFN-γ production (NK-92 cells)
CC(C)(C)c1cc(NC(=O)Nc2ccc(-c3cn4c(n3)sc3cc(OCCN5CCOCC5)ccc34)cc2)no1.Cl.Cl [AC220, N-(5-tert-butyl-isoxazol-3-yl)-N′-{4-[7-(2-morpholin-4-yl-ethoxy)imidazo[2,1-b][1,3]benzothiazol-2-yl]phenyl}urea dihydrochloride]	1	good efficacy and tolerability	increased infiltration of CD11b^+cDC2s	a minor effect on CD103+cDC1s, decreasing this DC population	no significant difference	
B1						results in IFN-γ production
